Laboratory results from patent US20150025120A1, “PYRAZOLE-ALCOHOL COMPOUNDS AND PHARMACEUTICAL USE THEREOF” (JAPAN TOBACCO INC., priority 2013, published 2015).

What was measured:
human PDHK2 (hPDHK2) = target: T1, human PDHK2 (hPDHK2) (Homo sapiens, UniProt Q15119); test: Inhibitory action of PDHK2 activity in vitro (residual PDH activity after kinase reaction); assay type: biochemical
T1 construct: made in house; host or cells: Escherichia coli BL21(DE3), pET17b
Description: The inhibitory action of PDHK activity was assessed indirectly by measuring the residual PDH activity after kinase reaction in the presence of a test compound.
In the case of human PDHK2 (hPDHK2, Genbank Accession No. BC040478.1), modified hPDHK2 cDNA wherein FLAG-Tag sequence was added to the N terminus of hPDHK2 cDNA clone (pReceiver-M01/PDK2-GeneCopoeia) was prepared by PCR and cloned into a vector (pET17b-Novagen). The recombinant construct was transformed into Escherichia coli (DH5α-TOYOBO). The recombinant clones were identified, and plasmid DNA was isolated and subjected to the DNA sequence analysis. One clone which had the expected nucleic acid sequence was selected for expression work.
For expression of hPDHK2 activity, Escherichia coli strain BL21(DE3) cells (Novagen) were transformed with the pET17b vector containing modified hPDHK2 cDNA. The Escherichia coli were grown to an optical density 0.6 ([…]) at 30° C. Protein expression was induced by the addition of 500 μmol/L isopropyl-β-thiogalactopyranoside. The Escherichia coli were cultured at 30° C. for 5 hr and harvested by centrifugation. Resuspension of the Escherichia coli paste was disrupted by a microfluidizer. FLAG-Tagged protein was purified using FLAG affinity gel. The gel was washed with 20 mmol/L HEPES-NaOH, 500 mmol/L sodium chloride, 1% ethylene glycol, and 0.1% Pluronic F-68 (pH 8.0), and the binding protein was eluted with 20 mmol/L HEPES-NaOH, 100 μg/mL FLAG peptide, 500 mmol/L sodium chloride, 1% ethylene glycol, and 0.1% Pluronic F-68 (pH 8.0). The eluted fractions containing FLAG-Tagged protein were pooled, dialyzed against 20 mmol/L HEPES-NaOH, 150 mmol/L sodium chloride, 0.5 mmol/L EDTA, 1% ethylene glycol, and 0.1% Pluronic F-68 (pH 8.0), and preserved at −80° C.
0.05 U/mL PDH and 0.8 μg/mL hPDHK2 were mixed in a buffer (50 mmol/L 3-morpholinopropanesulfonic acid (pH 7.0), 20 mmol/L dipotassium hydrogen phosphate, 60 mmol/L potassium chloride, 2 mmol/L magnesium chloride, 0.4 mmol/L EDTA, and 0.2% Pluronic F-68, 2 mmol/L dithiothreitol), and the mixture was incubated at 4° C. overnight to obtain a PDH/hPDHK2 complex. The test compounds were diluted with DMSO. […] DMSO (1.5 μL) was added to control wells instead of the test compound. […] The mixture was incubated at room temperature for 90 min, and the residual PDH activity was measured. The absorbance at 340 nm before and after PDH reaction was measured using a microplate reader to detect NADH produced by the PDH reaction. The hPDHK2 inhibition rate (%) of the test compound was calculated from the formula [{(PDH activity of test compound−PDH activity of control)/PDH activity of blank−PDH activity of control)}×100].

tissue PDH activity = test: Ex vivo PDH activation assay (liver and epididymal adipose tissue after oral administration); assay type: in vivo, Sprague-Dawley rats; conditions: 3 mg/kg, rat, mean ± standard deviation
Description: The action of test compound on tissue PDH activity was evaluated. NADH production was detected via p-iodonitrotetrazolium violet (INT)-coupled system to measure PDH activity.
Normal male Sprague-Dawley rats were randomly allocated to the vehicle group and the test compound groups. The vehicle (0.5% aqueous methylcellulose solution, 5 mL/kg) or the test compound was orally administered to the rats. At 5 or 20 hr after administration, the rats were anesthetized with an intraperitoneal injection of sodium pentobarbital (60 mg/kg), and liver slices and epididymal adipose tissues were collected.
(§1) To the liver slices were rapidly added 9 volumes of ice-cold homogenization buffer (0.25 mol/L sucrose, 5 mmol/L tris(hydroxymethyl)aminomethane hydrochloride (pH 7.5), 2 mmol/L EDTA), and the mixtures were homogenized using a Polytron homogenizer. The homogenates were centrifuged at 600×g, 4° C. for 10 min to obtain the supernatant. The supernatants (1 mL) were centrifuged at 16,000×g, 4° C. for 10 min to collect the precipitates. The precipitates were washed by resuspension in the homogenization buffer (1 mL) and centrifuged in the same manner. The precipitates were frozen with liquid nitrogen and stored at −80° C. as the liver mitochondrial fraction.
as §1, with “adipose tissues” for “liver slices”, “3” for “9”, “of an” for “of”, “buffer,” for “buffer (0.25 mol/L sucrose, 5 mmol/L tris(hydroxymethyl)aminomethane hydrochloride (pH 7.5), 2 mmol/L EDTA),”, “supernatants” for “supernatants (1 mL)”, “adipose tissue” for “liver”
The mitochondrial fractions were thawed and suspended with the sample buffer (0.25 mol/L sucrose, 20 mmol/L tris(hydroxymethyl)aminomethane hydrochloride (pH 7.5), 50 mmol/L potassium chloride, and 1 mL/L 4-(1,1,3,3-tetramethylbutyl)phenyl-polyethylene glycol (Triton X-100)). Active PDH activity (PDHa activity) and total PDH activity (PDHt activity) were measured to evaluate the PDH activity. For the measurement of the PDHt activity, equal amounts of the mitochondrial suspension and the activation buffer (0.25 mol/L sucrose, 20 mmol/L tris(hydroxymethyl)aminomethane hydrochloride (pH 7.5), 50 mmol/L potassium chloride, 1 mL/L Triton X-100, 4 mmol/L calcium chloride, 40 mmol/L magnesium chloride, 10 mmol/L sodium dichloroacetate) were mixed, and the mixtures were incubated at 37° C. for 10 min. Forty microliters of the mitochondrial suspensions diluted with a sample buffer were added to a 96-well microplate for activity measurement and blank measurement. Then 180 μL of the reaction mixture (0.056 mmol/L potassium phosphate buffer (pH 7.5), 5.6 mmol/L DL-carnitine, 2.8 mmol/L NAD, 0.22 mmol/L thiamin pyrophosphate, 0.11 mmol/L Coenzyme A, 1.1 mL/L Triton X-100, 1.1 mmol/L magnesium chloride, 1.1 g/L bovine serum albumin, 0.67 mmol/L INT, 7.2 μmol/L phenazine methosulfate, 28 mmol/L sodium oxamate) was added to each well, and then 20 μL of 50 mmol/L sodium pyruvate for activity measurement or water for blank measurement were added. The mixtures were incubated at room temperature under shading. The absorbances at 500-750 nm, which were attributable to reduction of INT, the final electron acceptor, were measured using a microplate reader over time and the changes in the absorbance were calculated. The PDH activity was calculated by subtraction of the change in absorbance of the blank well from that of the activity measurement well. The percentage of the PDHa activity to the PDHt activity was calculated and taken as an index of the PDH activation.

[1] = Metabolic stability test in liver microsome (human); assay type: in vitro ADME; conditions: 5 μM test compound
Description: Human liver microsome (manufactured by Xenotech, H0620, final concentration (after dilution), 0.2 mg protein/mL) was suspended in 100 mM potassium phosphate buffer (pH 7.4, containing β-nicotinamide adenine dinucleotide phosphate: 1.3 mM, D-glucose-6-phosphate: 3.3 mM, magnesium chloride: 3.3 mM, glucose-6-phosphate dehydrogenase: 0.45 U/mL), and further mixed with a test compound dissolved in MeCN/DMSO (95/5) (final concentration 5 μM). The mixture was incubated at 37° C. for 10 min and 60 min, acetonitrile containing formic acid (final concentration 0.1%) was added, and the mixture was centrifuged. The test compound (unmodified) in the supernatant was measured by high performance liquid chromatography/mass spectrometry (LC/MS) (manufactured by Waters, LC: Acquity UPLC, MS:SQ Detector or TQ Detector). The residual ratio (%) was calculated from the obtained measurement value.

[2] = Metabolic stability test in liver microsome (rat); assay type: in vitro ADME

## CC(C)(O)CCOc1cc(-c2cnn(CC(C)(C)O)c2)c2c(c1)[C@@](O)(C(F)(F)F)c1ccccc1-2 [compound (3), (9R)-2-(3-hydroxy-3-methylbutoxy)-4-[1-(2-hydroxy-2-methylpropyl)-1H-pyrazol-4-yl]-9-(trifluoromethyl)-9H-fluoren-9-ol]
Human PDHK2 (hPDHK2)
  IC50: 4.6 nM
Tissue PDH activity; adipose tissue, 5 hr after oral administration
  PDHa activity (% PDHt activity): 58 ± 7 % PDHt activity
Tissue PDH activity; adipose tissue, 20 hr after oral administration
  PDHa activity (% PDHt activity): 40 ± 3 % PDHt activity
Tissue PDH activity; liver, 5 hr after oral administration
  PDHa activity (% PDHt activity): 51 ± 13 % PDHt activity
Tissue PDH activity; liver, 20 hr after oral administration
  PDHa activity (% PDHt activity): 31 ± 12 % PDHt activity
[1]; 10 min
  stability in liver microsome (residual ratio %): 96.0%
[1]; 60 min
  stability in liver microsome (residual ratio %): 85.3%
[2]; 10 min
  stability in liver microsome (residual ratio %): 98.2%
[2]; 60 min
  stability in liver microsome (residual ratio %): 99.7%
